In patent US20180133212A1, “COMBINATION OF A BCL-2 INHIBITOR AND A BROMODOMAIN INHIBITOR FOR TREATING CANCER” (Gilead Sciences, Inc., priority 2016, published 2018):
Several values for one entry are separate records, joined by “and”; a condition that tells them apart may be missing. Equal entries are not always repeated. Where two headings read alike, the source gives them in different places.

Columns and labels:
DLBCL cell lines = assay: Single agent cell growth assessment (Cell Titer Glo); type: cell-based; conditions: Homo sapiens, 96 h, CTG, three or four days
Procedure: Compound A was serially diluted by three-fold in 100% DMSO in a 96 well plate format in duplicate dose curves to achieve a dose range of 10 mM to […] as a 1000× stock. Serially-diluted 1000× Compound A was then further diluted 1:100 in RPMI-1640 without additives to generate a 10× stock and finally diluted 1:10 into assay plate wells containing 100 μL of cells. The final concentration of DMSO was 0.1% in 111 μL of final volume in the assay wells and the dose range of Compound A was 10 μM to 0.5 nM. […] Cell viability was assessed using Cell Titer Glo (CTG, Promega, Madison, Wis.) following the manufacturer's protocol. Luminescence was measured on an EnSpire Multimode Plate Reader (Perkin Elmer, Waltham, Mass., Model 2300-001M).
A replicate assay plate was created at study initiation, processed immediately for cell viability by CTG, and these values represented 0% growth (day 0). […] Curve fittings were applied with a four parameter variable slope model and the following three calculations were determined using the curve fits. […]
(§1) The activity of Compound A to induce apoptosis or inhibit cell growth was assessed across a panel of DLBCL cell lines. DLBCL cell lines were subjected to a ten point dose response of Compound A (range 0.5 nM-10,000 nM, 3× dilution series) and assessed for cell growth inhibition by CTG or apoptosis by AnnexinV staining after three or four days.

DLBCL and FL cell lines = assay: Annexin V apoptosis assay (flow cytometry); type: cell-based, human
Procedure: Apoptosis induced by Compound A was measured by Annexin V staining as detected by flow cytometry. Compound A was diluted two-fold in duplicate to a starting concentration of 5 mM in 100% DMSO, and then serially diluted by three-fold in 100% DMSO in a 96 well plate format to achieve a 500× dose range of 5 mM to 0.76 μM. Serially-diluted Compound A was then further diluted 1:5 in sterile water to generate a 100× stock and finally diluted 1:100 into assay plate wells containing 200 μL of cells. The final concentration of DMSO was 0.2% in 200 μL in the assay wells and the dose range of Compound A was 10 μM to 1.5 nM. Cells were plated at 20,000-80,000 cells per well and assay plates were incubated after compound addition at 37° C. with 5% CO2 for 3 days in growth medium appropriate for each cell line. Control wells on all assay plates included 0.2% DMSO (0% apoptosis on day 3), 1 μM Velcade®, and 1 μM staurosporine (apoptosis control on day 3). Velcade® and staurosporine were used as benchmarks to ensure apoptosis could be achieved in each cell line.
After 72 to 96 hours, the cell compound mixture was transferred to a 96-well deep well conical bottom plate, centrifuged at 300×g, and cell pellets were re-suspended in DPBS. Plates were centrifuged at 300×g, supernatant was decanted, and cell pellets were re-suspended in 500 μl of pre-diluted LIVE/DEAD® Fixable Aqua Dead Cell Stain for 30 minutes at room temperature protected from light. Assay plates were centrifuged at 300×g, supernatant was decanted, and cell pellets were washed twice in 500 μL of DPBS containing 4% FBS. The washed pellets were re-suspended in 100 μL DPBS containing 4% FBS, 5 μL of Annexin V APC was added to each well, and assay plates were incubated for 30 minutes at room temperature, protected from light. Assay plates were washed twice with 500 μL of DPBS containing 4% FBS per well, and cell pellets were finally re-suspended in 250 μL of DPBS containing 4% FBS.
Flow cytometric sampling of 20,000 total events within a forward scatter and side-scatter gate (P1) per well were collected on a BD FACS Canto II instrument with DIVA software (San Jose, Calif.) using a high throughput screen auto-sampler for analysis of apoptosis. Within the P1 gate Annexin V^+/LIVE/DEAD^− and Annexin V^+/LIVE/DEAD^+ cells were digitally monitored. Single- or double-labeled cells were gated, percentages of Annexin V-positive cells in each population were recorded and combined, and data were extracted to a flow cytometry standard file (fcs). Mean percentages of Annexin V-positive cells were determined for the positive control (Velcade® and staurosporine at 1 μM) and negative wells (0.2% DMSO) to ensure the assay performed as expected for each cell line on each experimental day.
EC50 values for each compound were calculated based on log concentration of drug and percent Annexin V-positive cells using a four-parameter logistical fit equation in Prism 6.01 of the GraphPad software package. The percentage of apoptosis at EC50 was interpolated from the curve fit for each cell line. […] For an experiment to be valid, the % baseline apoptosis for a given cell line was required to be <35%.
as §1

Myc protein = assay: Reduction of Myc protein expression by Compound A; type: cell-based, human; conditions: subset of cell lines of FIG. 1, dose-dependent
[1] = Clinically relevant exposures (clinical plasma exposure, protein adjusted); type: in vivo
Procedure: (§2) Clinically relevant doses of Compound A were calculated.
A set of data was selected from the synergy screening to represent clinically relevant concentration ranges of venetoclax and Compound A. […] Cmin and Ctrough of Compound A were similarly adjusted.

[2] = Protein shift: free fraction in human plasma / cell culture media; type: in vitro ADME
Procedure: as §2
A set of data was selected from the synergy screening to represent clinically relevant concentration ranges of venetoclax and Compound A. The average concentration of venetoclax (Cav) was estimated at the 400 mg dose adjusted for protein binding using empirically determined free fraction in human plasma/cell culture media. Cmin and Ctrough of Compound A were similarly adjusted.

[3] = ABT-199, 400 mg dose, Phase I NHL study; cited from earlier work

Cc1noc(C)c1-c1cc(C(O)(c2ccccn2)c2ccccn2)c2nc(C3CC3)[nH]c2c1 [Compound A]
EC50 (DLBCL cell lines; DLBCL cell lines of FIG. 1, read-out: growth inhibition EC50 range across cell lines): 0.012 to 0.072 µM
EC50 (DLBCL cell lines; mean over subset of cell lines of FIG. 1, read-out: growth inhibition mean EC50): 0.04 µM
EC50 (DLBCL and FL cell lines; Homo sapiens, one responding cell line with EC50 above 113 nM): 2.5 µM
% apoptosis by 1 μM (DLBCL and FL cell lines; cell lines that did not undergo apoptosis (10 of 21; 8 of the FIG. 1 subset)): < 30%
% Annexin V positive after treatment with 1 μM (DLBCL and FL cell lines; eight cell lines with EC50 <113 nM): > 30%
EC50 (DLBCL and FL cell lines; individual responding cell lines, three or four days): < 0.113 µM and 0.274 µM and 0.881 µM
lines refractory to Bcl-2 inhibition that undergo apoptosis (DLBCL and FL cell lines; of the 8 lines refractory to venetoclax (FIG. 4)): 6
number of cell lines that underwent apoptosis (DLBCL and FL cell lines; of twenty-one DLBCL and FL cell lines, single agent): 11
subset of DLBCL cell lines in which apoptosis was induced (DLBCL and FL cell lines; share of DLBCL cell lines): 58%
EC50 (Myc protein; Homo sapiens): ≤ 0.155 µM
EC50 (Myc protein): 0.284 µM
CCM adjusted Cave ([1]; human, in vivo): 40 nM
CCM adjusted Cmin ([1]; human, in vivo): 10 nM
Cmax ([1]; human, in vivo, 4 mg, CCM protein adjusted CCM Cmax): 111 nM
Cmax ([1]; human, in vivo, 4 mg, exposures Cmax): 279 ng/mL and 638 nM
Cmax ([1]; human, in vivo, CCM adjusted Cmax): 90 nM
Cmax ([1]; human, in vivo, protein adjusted Cmax concentration): ~113 nM
CCM/buffer [2]: CCM/buffer 67%
HP/buffer ([2]; human): HP/buffer 11.7

CC1(C)CCC(CN2CCN(c3ccc(C(=O)NS(=O)(=O)c4ccc(NCC5CCOCC5)c([N+](=O)[O-])c4)c(Oc4cnc5[nH]ccc5c4)c3)CC2)=C(c2ccc(Cl)cc2)C1 [venetoclax, reference compound]
Cmax ([1]; ABT-199, 400 mg dose, cell culture media adjusted, read-out: CCM protein adjusted Cmax): 536 nM
Cmax ([1]; human, plasma, 400 mg, ABT-199, 400 mg dose, cell culture media adjusted, read-out: CCM protein adjusted Cmax): 536 nM
Cmax ([1]; human, plasma, 400 mg, ABT-199, 400 mg dose, read-out: exposures Cmax): 2300 nM
CCM/buffer ([2]; free fraction, cell culture media): CCM/buffer 0.44%
HP/buffer ([2]; free fraction, human plasma): HP/buffer 0.10%
exposures Cmax [3]: 2000 ng/mL
exposures Cmin [3]: 200 ng/mL
